The source of these data is ChEMBL document CHEMBL1201862, “PubChem BioAssay data set” (2004).

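A five-concentration, 48-hour dose response in 96-well plates underlies each endpoint, interpolated linearly between surrounding concentrations. Here, GI50 denotes the concentration required for 50% inhibition of growth.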 Active and inactive are the calls of the source. Rule as the data show it: active = GI50 up to about 1.1 µM and inactive = higher.

Some test systems named below: UACC-62; NCI-H23; OVCAR-5; SK-OV-3; HCT-116; HOP-62; T47D; HCT-15; OVCAR-8; M14; NCI-H460; MDA-MB-435; MCF7; SNB-75; UACC-257; SF-295; HT-29; NCI-H226; A498; M19-MEL.
What all share (assay): growth of human tumour cells (NCI), 48 h

Turning to `CN1c2ccccc2C(=O)NC12CCN(Cc1ccccc1)CC2`, the GI50 is 86.5 µM (inactive) with UACC-62; > 100 µM (inactive) in the assay with NCI-H23; > 100 µM (inactive) in the assay on OVCAR-5; 84.9 µM (inactive) in the assay with SK-OV-3; 44.9 µM (inactive) in the assay on HCT-116; 54.7 µM (inactive) in the assay on HOP-62. In addition, the GI50 is 70.3 µM (inactive) in the assay with T47D; 42.5 µM with HCT-15; 69.2 µM (inactive) with OVCAR-8; 33.4 µM (inactive) in the assay with M14; 39.4 µM (inactive) with NCI-H460; 63.1 µM (inactive) in the assay with MDA-MB-435. Moreover, the GI50 in the assay on MCF7 was 46 µM (inactive); with SNB-75, 75 µM (inactive); with UACC-257 it was 59.6 µM (inactive); with SF-295 it was 32 µM (inactive); in the assay with HT-29, 27.6 µM (inactive); with NCI-H226, 27.5 µM (inactive). The GI50 with A498 was 57.1 µM (inactive).
As for `CNC(=O)CN(CC(=O)NC)C(=O)NC`, the GI50 in the assay with UACC-62, in the assay on NCI-H23, in the assay with OVCAR-5, with SK-OV-3, with M19-MEL and in the assay with HOP-62 was > 100 µM (inactive) throughout. The GI50 in the assay on HCT-15 is greater than 100 µM; in the assay with OVCAR-8, > 100 µM (inactive); in the assay with M14, > 100 µM (inactive); in the assay on SNB-75, > 100 µM (inactive); in the assay with UACC-257, > 100 µM (inactive); in the assay with SF-295, > 100 µM (inactive). In addition, the GI50 with HT-29, with NCI-H226 and in the assay with A498 was > 100 µM (inactive) in each case.
Consider `Cc1cc2c(cc1Br)C1(C)CCC(C)C1(C)O2` (stereo not given), for which the GI50 was 44 µM (inactive) with UACC-62; 25.5 µM (inactive) with NCI-H23; 23.8 µM (inactive) in the assay with OVCAR-5; 53.3 µM (inactive) with SK-OV-3; 14 µM (inactive) with HCT-116; 25.3 µM (inactive) in the assay on M19-MEL. Also, the GI50 with HOP-62 is 30.3 µM (inactive); in the assay on HCT-15 it was 36.6 µM; in the assay with OVCAR-8 it was 29.6 µM (inactive); in the assay with M14, 32.3 µM (inactive); in the assay on NCI-H460, 23.7 µM (inactive); in the assay on SNB-75, 36.6 µM (inactive). The GI50 in the assay on UACC-257 was 30.5 µM (inactive); with SF-295 it was 17.3 µM (inactive); in the assay with HT-29, 30.6 µM (inactive); in the assay on NCI-H226, 19.8 µM (inactive); in the assay with A498, 34.6 µM (inactive).
Take `CN1C(=O)n2c(nc3ccccc32)C(N=[N+]=[N-])(N=[N+]=[N-])C1=O` (stereo not given): the GI50 in the assay with UACC-62, in the assay with NCI-H23, in the assay on OVCAR-5, in the assay with SK-OV-3, in the assay on HCT-116 and in the assay with M19-MEL was > 100 µM (inactive) in each case. Also, the GI50 in the assay with HOP-62 was > 100 µM (inactive); in the assay with HCT-15, 99.1 µM; with OVCAR-8 it was > 100 µM (inactive); in the assay on M14 it was > 100 µM (inactive); in the assay on NCI-H460, > 100 µM (inactive); in the assay on SNB-75, 57.3 µM (inactive). Further, the GI50 in the assay with UACC-257, in the assay on SF-295, with HT-29, in the assay with NCI-H226 and with A498 was > 100 µM (inactive) each time.
With `CC1(C)c2ccccc2N2O[C@@H]3C(=O)N(c4ccccc4)C(=O)[C@@H]3C21c1ccccc1` (stereo not given in full), the GI50 in the assay on UACC-62 is > 100 µM (inactive); in the assay with NCI-H23, > 100 µM (inactive); in the assay with SK-OV-3, > 100 µM (inactive); in the assay with M19-MEL it was > 100 µM (inactive); in the assay with HOP-62, > 100 µM (inactive); with HCT-15, greater than 100 µM. The GI50 in the assay on OVCAR-8 was > 100 µM (inactive); in the assay with M14, > 100 µM (inactive); with SNB-75, 84.1 µM (inactive); with UACC-257, > 100 µM (inactive); with SF-295, > 100 µM (inactive); with HT-29, > 100 µM (inactive). The GI50 in the assay with NCI-H226 was > 100 µM (inactive).
Regarding `CC(C)C(=O)NS(=O)(=O)c1ccccc1`, the GI50 in the assay on UACC-62, in the assay on NCI-H23, in the assay on OVCAR-5, in the assay with SK-OV-3, in the assay with HCT-116 and in the assay with M19-MEL was > 100 µM (inactive) throughout. Besides, the GI50 in the assay on HOP-62, in the assay on OVCAR-8, in the assay on M14, with NCI-H460, in the assay on SNB-75 and in the assay with UACC-257 was > 100 µM (inactive) in each case. Also, the GI50 in the assay with SF-295, in the assay on HT-29, in the assay with NCI-H226 and in the assay with A498 was > 100 µM (inactive) each time.
Consider `N#C/N=C(/NCCc1c[nH]c2ccccc12)Oc1ccccc1`, for which the GI50 is 75.3 µM (inactive) in the assay on UACC-62; > 100 µM (inactive) with NCI-H23; > 100 µM (inactive) with OVCAR-5; > 100 µM (inactive) in the assay on SK-OV-3; 52.5 µM (inactive) in the assay with HCT-116; 94.8 µM (inactive) in the assay on M19-MEL. For the same compound, the GI50 with HOP-62 was > 100 µM (inactive); with HCT-15, 56.8 µM; in the assay on OVCAR-8 it was > 100 µM (inactive); in the assay on M14, 78.5 µM (inactive); with NCI-H460, 37.1 µM (inactive); in the assay with SNB-75, 43 µM (inactive). For the same compound, the GI50 is > 100 µM (inactive) in the assay on UACC-257, 45.8 µM (inactive) in the assay with SF-295, 34.8 µM (inactive) with HT-29 and 77.3 µM (inactive) with NCI-H226.
Take `COC(=O)c1cc(O)ccc1NC(=O)c1ccc(O)cc1`: the GI50 in the assay with UACC-62, with NCI-H23, with OVCAR-5, in the assay on SK-OV-3, with HCT-116 and in the assay on M19-MEL was > 100 µM (inactive) in each case. For the same compound, the GI50 with HOP-62 is > 100 µM (inactive); in the assay on HCT-15, greater than 100 µM; in the assay with OVCAR-8 it was > 100 µM (inactive); with M14, > 100 µM (inactive); in the assay with NCI-H460 it was > 100 µM (inactive); in the assay with SNB-75, > 100 µM (inactive). Further, the GI50 in the assay on UACC-257, in the assay on SF-295, in the assay on HT-29 and in the assay with NCI-H226 was > 100 µM (inactive) throughout.
`COc1c2nc(CCl)[nH]c(=O)c2c(OC)c2nc(CCl)[nH]c(=O)c12`: the GI50 in the assay with UACC-62, in the assay on NCI-H23, in the assay with OVCAR-5, in the assay on SK-OV-3, with HCT-116 and in the assay with M19-MEL was > 100 µM (inactive) in each case. Besides, the GI50 in the assay on HOP-62 was > 100 µM (inactive); in the assay with HCT-15, greater than 100 µM; in the assay with OVCAR-8 it was > 100 µM (inactive); in the assay on M14, > 100 µM (inactive); in the assay on NCI-H460, > 100 µM (inactive); in the assay with SNB-75, > 100 µM (inactive). In addition, the GI50 in the assay with UACC-257, in the assay on SF-295, in the assay on HT-29 and in the assay with NCI-H226 was > 100 µM (inactive) each time.
Take `COc1ccc2c3c(coc13)C(CCC(=O)O)CC2` (stereo not given): the GI50 with UACC-62, with NCI-H23, with SK-OV-3, in the assay on HCT-116, in the assay with M19-MEL and in the assay on HOP-62 was > 100 µM (inactive) throughout. For the same compound, the GI50 in the assay on HCT-15 is greater than 100 µM; with OVCAR-8, > 100 µM (inactive); in the assay with M14 it was > 100 µM (inactive); in the assay with NCI-H460, > 100 µM (inactive); in the assay with SNB-75, 56.6 µM (inactive); in the assay on UACC-257, > 100 µM (inactive). For the same compound, the GI50 in the assay on SF-295, in the assay on HT-29 and in the assay with A498 was > 100 µM (inactive) each time.
As to `CCOC1c2nc3ccccc3nc2-c2ccccc2N1C(C)=O` (stereo not given), the GI50 in the assay with UACC-62, with NCI-H23, in the assay on SK-OV-3, in the assay with HCT-116, in the assay with M19-MEL and with HOP-62 was > 100 µM (inactive) in each case. Moreover, the GI50 with HCT-15 is greater than 100 µM; with OVCAR-8, 48.2 µM (inactive); with M14, > 100 µM (inactive); in the assay on NCI-H460, > 100 µM (inactive); in the assay with SNB-75 it was 46.2 µM (inactive); in the assay with UACC-257, > 100 µM (inactive). Further, the figures for the GI50 in the assay on SF-295, in the assay with HT-29 and in the assay on A498 were 69.3 µM (inactive), > 100 µM (inactive) and > 100 µM (inactive), respectively.
In the case of `COc1cc2c(cc1OC)-c1cc3cc(OC)c(OC)cc3n1CC2`, the GI50 in the assay on UACC-62 was 85.5 µM (inactive); in the assay on NCI-H23 it was 81.1 µM (inactive); with OVCAR-5 it was > 100 µM (inactive); in the assay with SK-OV-3, 30.5 µM (inactive); in the assay on HCT-116 it was 32.4 µM (inactive); in the assay on M19-MEL it was > 100 µM (inactive). The GI50 in the assay on HOP-62 was 31.6 µM (inactive); in the assay with OVCAR-8, 24.1 µM (inactive); in the assay on M14, 23.4 µM (inactive); in the assay on NCI-H460, 36 µM (inactive); with SNB-75 it was 18.5 µM (inactive); in the assay with UACC-257 it was 56 µM (inactive). Moreover, the GI50 with SF-295 was 13.2 µM (inactive); in the assay with HT-29 it was 16.6 µM (inactive); with NCI-H226, 33.7 µM (inactive); in the assay with A498, 14.4 µM (inactive).
Take `Nc1n[n+]([O-])c2ccccc2[n+]1[O-]` [TIRAPAZAMINE]: the GI50 was 61.7 µM (inactive) in the assay on UACC-62; > 100 µM (inactive) in the assay on OVCAR-5; 73.1 µM (inactive) in the assay on SK-OV-3; 95.9 µM (inactive) with M19-MEL; 53.1 µM (inactive) with HOP-62; greater than 100 µM with HCT-15. Besides, the GI50 was > 100 µM (inactive) with OVCAR-8; > 100 µM (inactive) in the assay on M14; 49.7 µM (inactive) with NCI-H460; 29.6 µM (inactive) with SNB-75; 72.4 µM (inactive) in the assay on UACC-257; > 100 µM (inactive) with SF-295. Moreover, the GI50 in the assay with HT-29 and in the assay on NCI-H226 was > 100 µM (inactive) in each case.
